Test results published in patent US20100004267A1, “LIQUID PREPARATION” (ASUBIO PHARMA CO., LTD., priority 2006, published 2010).
Counter-ions that a name gives are not always drawn.

Legend:
[1] = Likelihood of formation of insoluble aggregate with free base among counter ions; type: physicochemical; details: estimated from the inventors' examinations
[2] = Examination of antioxidant: storage at 60° C. (Test example 3); type: physicochemical
Experimental: In this examination, hydrochloride of the compound of formula (I) was used instead of SUN N8075. Approximately 400 mg of the hydrochloride of compound of formula (I) were precisely weighed and water was added to make the volume precisely 200 mL, which was provided as an original drug aqueous solution.
Approximately 400 mg of each antioxidant shown in Table 3 below were precisely weighed and dissolved by adding 20 mL of water. As to butylhydroxy anisole, 10.7 mg was precisely weighed and dissolved in 100 mL of water.
15 mL of each antioxidant solution was mixed with 15 mL of solution of drug substance to prepare a stock sample (in the sample, the concentration of the hydrochloride compound of formula (I) corresponds to 1 mg/mL and the concentration of antioxidant corresponds to 10 mg/mL).
After dispensing each stock sample into 15 brown glass ampules, the ampules were sealed and stored at 60° C.
As a control sample, 15 mL of solution of drug substance added with 15 mL of water were stored in the same condition.
The remaining three ampules for each sample solution were used for measurement at the start of tests.
Each prepared sample was sampled in time series. 1 mL of sample solution was precisely measured, change in appearance and solution state of the sample were observed, and then added with methanol to make the volume precisely 10 mL. For this solution, residual percentage of the hydrochloride of compound of formula (I) was calculated by HPLC method. Furthermore, the pH value of the sample solution remaining after completion of test was measured.

[3] = Butyl hydroxy anisole, at start
[4] = L-Cysteine HCl monohydrate 10 mg/mL, 1 day
[5] = L-Cysteine HCl monohydrate 10 mg/mL, 7 days
[6] = L-Cysteine HCl monohydrate 10 mg/mL, 21 days
[7] = L-Cysteine HCl monohydrate 10 mg/mL, at start
[8] = Sodium bisulfite 10 mg/mL, 1 day
[9] = Sodium bisulfite 10 mg/mL, 7 days
[10] = Sodium bisulfite 10 mg/mL, 21 days
[11] = Sodium bisulfite 10 mg/mL, at start
[12] = Sodium edetate 10 mg/mL, 7 days
[13] = Sodium edetate 10 mg/mL, 21 days
[14] = Sodium edetate 10 mg/mL, at start
[15] = Sodium pyrosulfite 10 mg/mL, 1 day
[16] = Sodium pyrosulfite 10 mg/mL, 7 days
[17] = Sodium pyrosulfite 10 mg/mL, 21 days
[18] = Sodium pyrosulfite 10 mg/mL, at start
[19] = α-Thioglycerol 10 mg/mL, 7 days
[20] = α-Thioglycerol 10 mg/mL, 21 days
[21] = α-Thioglycerol 10 mg/mL, at start

## Cc1cc(OC[C@@H](O)CN2CCN(c3ccc(Cc4ccc(F)cc4)cc3)CC2)c(C)c(C)c1N [compound represented by the formula (I), (2S)-1-(4-amino-2,3,5-trimethylphenoxy)-3-{4-[4-(4-fluorobenzyl)phenyl]-1-piperazinyl}-2-propanol]
[1]
  Order of likelihood of formation of insoluble aggregate with free base among various counter ions: sulfate ion>sulfite (or bisulfite ion)>>phosphate ion (or hydrogen phosphate ion, dihydrogen phosphate ion)>acetate ion>chloride ion>methane sulfonate ion

## Cc1cc(OC[C@@H](O)CN2CCN(c3ccc(Cc4ccc(F)cc4)cc3)CC2)c(C)c(C)c1N [hydrochloride of compound of formula (I)]
[2]; Butyl hydroxy anisole (10.7 mg in 100 mL stock), at start
  Appearance: colorless and clear
[2]; Butyl hydroxy anisole, 1 day
  Appearance: colorless and clear
  Purity: 96.8%
  Residual degree: 99.2%
  pH: 2.8
[2]; Butyl hydroxy anisole, 7 days
  Appearance: colorless and clear
  Purity: 80.6%
  Residual degree: 80.3%
  pH: 2.8
[2]; Butyl hydroxy anisole, 21 days
  Appearance: Brown precipitates
  Purity: 53.5%
  Residual degree: 41.2%
  pH: 2.8
[2]; [3]
  Purity: 100%
  Residual degree: 100%
  pH: 2.8
[2]; Citric acid 10 mg/mL, 1 day
  Appearance: colorless and clear
  Purity: 99.2%
  Residual degree: 98.0%
  pH: 2.2
[2]; Citric acid 10 mg/mL, 7 days
  Appearance: colorless and clear
  Purity: 88.6%
  Residual degree: 89.8%
  pH: 2.2
[2]; Citric acid 10 mg/mL, 21 days
  Appearance: colorless and clear
  Purity: 63.6%
  Residual degree: 57.3%
  pH: 2.2
[2]; Citric acid 10 mg/mL, at start
  Appearance: colorless and clear
  Purity: 100%
  Residual degree: 100%
  pH: 2.1
[2]; [4]
  Appearance: colorless and clear
  Purity: 100%
  Residual degree: 97.9%
  pH: 1.7
[2]; [5]
  Appearance: colorless and clear
  Purity: 99.7%
  Residual degree: 100.6%
  pH: 1.7
[2]; [6]
  Appearance: colorless and clear
  Purity: 99.6%
  Residual degree: 94.0%
  pH: 1.7
[2]; [7]
  Appearance: colorless and clear
  Purity: 100%
  Residual degree: 100%
  pH: 1.7
[2]; No additive, 1 day
  Appearance: colorless and clear
  Purity: 98.4%
  Residual degree: 98.7%
  pH: 2.8
[2]; No additive, 7 days
  Appearance: colorless and clear
  Purity: 82.5%
  Residual degree: 84.4%
  pH: 3.0
[2]; No additive, 21 days
  Appearance: colorless and clear
  Purity: 51.2%
  Residual degree: 43.1%
  pH: 2.9
[2]; No additive, at start
  Appearance: colorless and clear
  Purity: 100%
  Residual degree: 100%
  pH: 2.8
[2]; [8]
  Appearance: colorless and clear
  Purity: 98.5%
  Residual degree: 99.9%
  pH: 3.2
[2]; [9]
  Appearance: colorless and clear
  Purity: 98.3%
  Residual degree: 97.3%
  pH: 2.8
[2]; [10]
  Appearance: colorless and clear
  Purity: 98.4%
  Residual degree: 91.2%
  pH: 2.8
[2]; [11]
  Appearance: colorless and clear
  Purity: 97.2%
  Residual degree: 100%
  pH: 3.5
[2]; Sodium edetate 10 mg/mL, 1 day
  Appearance: colorless and clear
  Purity: 97.9%
  Residual degree: 94.1%
  pH: 3.8
[2]; [12]
  Appearance: colorless and clear
  Purity: 81.2%
  Residual degree: 68.5%
  pH: 4.1
[2]; [13]
  Appearance: colorless and clear
  Purity: 53.8%
  Residual degree: 31.9%
  pH: 4.2
[2]; [14]
  Appearance: colorless and clear
  Purity: 100%
  Residual degree: 100%
  pH: 4.0
[2]; [15]
  Appearance: colorless and clear
  Purity: 98.2%
  Residual degree: 102.4%
  pH: 3.1
[2]; [16]
  Appearance: colorless and clear
  Purity: 97.3%
  Residual degree: 97.2%
  pH: 2.9
[2]; [17]
  Appearance: colorless and clear
  Purity: 97.6%
  Residual degree: 89.8%
  pH: 2.7
[2]; [18]
  Appearance: colorless and clear
  Purity: 94.4%
  Residual degree: 100%
  pH: 3.6
[2]; α-Thioglycerol 10 mg/mL, 1 day
  Appearance: colorless and clear
  Purity: 100%
  Residual degree: 97.5%
  pH: 2.8
[2]; [19]
  Appearance: colorless and clear
  Purity: 99.2%
  Residual degree: 97.1%
  pH: 2.8
[2]; [20]
  Appearance: colorless and clear
  Purity: 96.8%
  Residual degree: 89.0%
  pH: 2.8
[2]; [21]
  Appearance: colorless and clear
  Purity: 100%
  Residual degree: 100%
  pH: 2.7
